Experimental data reported in ChEMBL document CHEMBL1152699, “Taste-guided identification of high potency TRPA1 agonists from Perilla frutescens” (Bioorg Med Chem, 2009).
pEC50: −log10 of the molar value. Blank lines part the entries; values can stand above or below the compound they belong to. The source made the active and inactive calls. The rule behind the calls is not given here.

Key:
Assay type in all cases: functional, cell-based
[1] = target: Transient receptor potential cation channel subfamily A member 1 (Rattus norvegicus) (UniProt Q6RI86); assay: Agonist activity at rat recombinant TRPA1 receptor expressed in HEK293 cells assessed as increase in intracellular calcium concentration by fluorimetric test in presence of TRP channel blocker ruthenium red
Sequence of Transient receptor potential cation channel subfamily A member 1 (Rattus norvegicus) (Q6RI86 whole entry): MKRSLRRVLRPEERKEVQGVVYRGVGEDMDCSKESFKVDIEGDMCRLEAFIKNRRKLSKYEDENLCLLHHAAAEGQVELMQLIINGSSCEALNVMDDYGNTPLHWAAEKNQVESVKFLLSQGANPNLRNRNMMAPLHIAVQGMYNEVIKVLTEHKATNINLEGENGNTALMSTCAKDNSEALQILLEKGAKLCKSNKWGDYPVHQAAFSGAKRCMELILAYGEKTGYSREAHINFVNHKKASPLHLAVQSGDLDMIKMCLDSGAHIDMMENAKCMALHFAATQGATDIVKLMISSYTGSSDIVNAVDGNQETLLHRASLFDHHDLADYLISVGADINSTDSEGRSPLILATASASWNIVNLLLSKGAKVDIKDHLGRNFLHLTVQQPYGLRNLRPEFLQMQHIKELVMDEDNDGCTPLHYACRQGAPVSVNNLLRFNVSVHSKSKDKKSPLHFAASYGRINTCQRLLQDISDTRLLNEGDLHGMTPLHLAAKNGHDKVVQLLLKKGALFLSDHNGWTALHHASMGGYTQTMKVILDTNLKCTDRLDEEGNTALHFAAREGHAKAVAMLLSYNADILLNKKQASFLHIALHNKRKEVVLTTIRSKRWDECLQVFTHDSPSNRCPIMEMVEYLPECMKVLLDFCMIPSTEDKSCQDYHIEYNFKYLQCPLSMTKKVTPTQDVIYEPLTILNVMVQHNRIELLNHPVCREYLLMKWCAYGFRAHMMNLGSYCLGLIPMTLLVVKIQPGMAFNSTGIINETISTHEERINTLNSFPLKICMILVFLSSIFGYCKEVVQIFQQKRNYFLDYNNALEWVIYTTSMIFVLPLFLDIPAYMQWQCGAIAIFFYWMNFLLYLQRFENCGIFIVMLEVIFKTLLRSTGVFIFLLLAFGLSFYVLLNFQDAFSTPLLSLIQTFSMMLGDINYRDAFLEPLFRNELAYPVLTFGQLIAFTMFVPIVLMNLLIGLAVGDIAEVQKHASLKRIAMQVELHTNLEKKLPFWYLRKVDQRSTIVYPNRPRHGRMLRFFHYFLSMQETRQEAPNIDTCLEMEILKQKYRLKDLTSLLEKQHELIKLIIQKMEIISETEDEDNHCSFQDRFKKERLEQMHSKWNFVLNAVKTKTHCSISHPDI

[2] = target: Transient receptor potential cation channel subfamily A member 1 (Rattus norvegicus, UniProt Q6RI86); assay: Agonist activity at rat recombinant TRPA1 receptor expressed in HEK293 cells assessed as increase in intracellular calcium concentration by fluorimetric test; details: for pEC50: read-out: EC50; for EC50: read-out: pEC50 (converted)
Sequence of Transient receptor potential cation channel subfamily A member 1 (Q6RI86 whole entry): as above

[3] = target: Transient receptor potential cation channel subfamily A member 1 (Rattus norvegicus) (UniProt Q6RI86); assay: Antagonist activity at rat recombinant TRPA1 receptor expressed in HEK293 cells assessed as inhibition of allylisothiocyanate-induced increase in intracellular calcium concentration preincubated for 5 mins by fluorimetric test
[4] = target: Transient receptor potential cation channel subfamily M member 8 (Rattus norvegicus) (UniProt Q8R455); assay: Antagonist activity at rat recombinant TRPM8 receptor expressed in HEK293 cells assessed as inhibition of icilin-induced increase in intracellular calcium concentration at 200 uM preincubated for 5 mins before icilin treatment by fluorimetric test
Sequence of Transient receptor potential cation channel subfamily M member 8 (Rattus norvegicus) (Q8R455 whole entry, looked up): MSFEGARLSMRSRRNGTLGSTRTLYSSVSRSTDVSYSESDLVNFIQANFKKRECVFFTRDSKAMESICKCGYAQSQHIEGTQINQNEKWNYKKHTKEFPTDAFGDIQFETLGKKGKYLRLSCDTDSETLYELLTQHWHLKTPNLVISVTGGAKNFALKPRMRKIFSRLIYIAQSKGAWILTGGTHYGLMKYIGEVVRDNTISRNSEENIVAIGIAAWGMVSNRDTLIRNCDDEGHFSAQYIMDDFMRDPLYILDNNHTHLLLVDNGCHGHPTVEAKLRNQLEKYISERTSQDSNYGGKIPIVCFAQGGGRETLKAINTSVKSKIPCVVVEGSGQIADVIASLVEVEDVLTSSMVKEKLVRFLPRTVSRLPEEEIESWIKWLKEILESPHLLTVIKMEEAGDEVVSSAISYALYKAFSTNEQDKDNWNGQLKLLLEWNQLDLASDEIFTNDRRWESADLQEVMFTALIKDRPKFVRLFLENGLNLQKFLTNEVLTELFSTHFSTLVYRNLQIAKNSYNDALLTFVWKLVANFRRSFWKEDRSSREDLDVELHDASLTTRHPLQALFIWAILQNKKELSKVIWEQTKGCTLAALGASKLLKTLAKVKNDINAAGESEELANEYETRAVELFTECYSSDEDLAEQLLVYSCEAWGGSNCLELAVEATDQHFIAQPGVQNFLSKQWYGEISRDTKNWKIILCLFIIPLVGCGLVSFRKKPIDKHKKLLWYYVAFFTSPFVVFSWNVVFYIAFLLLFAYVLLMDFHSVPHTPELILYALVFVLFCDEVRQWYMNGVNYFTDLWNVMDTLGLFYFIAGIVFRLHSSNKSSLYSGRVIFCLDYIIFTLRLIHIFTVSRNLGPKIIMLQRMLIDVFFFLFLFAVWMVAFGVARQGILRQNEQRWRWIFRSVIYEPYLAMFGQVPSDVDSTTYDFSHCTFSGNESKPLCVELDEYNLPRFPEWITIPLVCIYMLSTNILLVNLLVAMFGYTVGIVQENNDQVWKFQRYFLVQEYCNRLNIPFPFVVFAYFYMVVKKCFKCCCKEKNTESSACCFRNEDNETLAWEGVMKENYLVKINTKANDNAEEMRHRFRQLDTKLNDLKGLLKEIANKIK

[5] = target: Transient receptor potential cation channel subfamily M member 8 (Rattus norvegicus) (UniProt Q8R455); assay: Antagonist activity at rat recombinant TRPM8 receptor expressed in HEK293 cells assessed as inhibition of icilin-induced increase in intracellular calcium concentration at 200 uM preincubated […] before icilin treatment by fluorimetric test
[6] = target: Transient receptor potential cation channel subfamily A member 1 (Rattus norvegicus) (UniProt Q6RI86); assay: Agonist activity at rat recombinant TRPA1 receptor expressed in HEK293 cells assessed as increase in intracellular calcium concentration by fluorimetric test relative to 100 uM allylisothiocyanate
[7] = target: Transient receptor potential cation channel subfamily M member 8 (Rattus norvegicus) (UniProt Q8R455); assay: (§1) Agonist activity at rat recombinant TRPM8 receptor expressed in HEK293 cells assessed as increase in intracellular calcium concentration by fluorimetric test
[8] = target: Transient receptor potential cation channel subfamily M member 8 (Rattus norvegicus, UniProt Q8R455); assay: as §1
Sequence of Transient receptor potential cation channel subfamily M member 8 (Q8R455 whole entry): as the sequence (Q8R455 whole entry, looked up) above

Compound: CC(C)CCC(=O)c1ccoc1 [PERILLAKETONE]
Activity [1]: inactive
pEC50 [2]: 4.71
EC50 [2]: 40.7 µM
Activity [3]: Active
inhibition [4]: 39.3%
Activity [5]: Active
Efficacy [6]: 181%

Compound: C=C(C)C1CC=C(C=O)CC1 (stereo not given) [PERILLALDEHYDE]
Activity [1]: inactive
pEC50 [2]: 4.39
EC50 [2]: 19.5 µM
inhibition [4]: 64.3%
Activity [5]: Active
Efficacy [6]: 74.6%

Activity [7]: Dose-dependent effect
pEC50 [8]: 6.72
Compound: O=C1NC(c2cccc([N+](=O)[O-])c2)=CCN1c1ccccc1O [ICILLIN]
